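In this assay, cells in 96-well plates receive the compound at five concentrations for 48 hours. Endpoints are linearly interpolated between the surrounding concentrations. Here, GI50 denotes the concentration required for 50% inhibition of growth.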 Activity calls are given as the source filed them. No stated cut-off is given here; in the data, active = GI50 up to about 1.1 µM and inactive = higher.
Key:
Assay in all cases: growth of human tumour cells (NCI), 48 h
A498 = system: A498
DMS-114 = system: DMS-114
HCT-116 = system: HCT-116
HCT-15 = system: HCT-15
HOP-92 = system: HOP-92
HT-29 = system: HT-29
K562 = system: K562
KM12 = system: KM12
OVCAR-3 = system: OVCAR-3
OVCAR-8 = system: OVCAR-8
SF-268 = system: SF-268
SK-MEL-5 = system: SK-MEL-5
SK-OV-3 = system: SK-OV-3
U-251 = system: U-251
UACC-257 = system: UACC-257
UO-31 = system: UO-31
SK-MEL-2 = system: SK-MEL-2
Hs-578T = system: Hs-578T
NCI/ADR-RES = system: NCI/ADR-RES
T47D = system: T47D

| Structure (SMILES) | GI50 (A498) | GI50 (DMS-114) | GI50 (HCT-116) | GI50 (HCT-15) [µM] | GI50 (HOP-92) | GI50 (HT-29) | GI50 (K562) | GI50 (KM12) | GI50 (OVCAR-3) | GI50 (OVCAR-8) | GI50 (SF-268) | GI50 (SK-MEL-5) | GI50 (SK-OV-3) | GI50 (U-251) | GI50 (UACC-257) | GI50 (UO-31) | GI50 (SK-MEL-2) | GI50 (Hs-578T) | GI50 (NCI/ADR-RES) | GI50 (T47D) |
| --- | --- | --- | --- | --- | --- | --- | --- | --- | --- | --- | --- | --- | --- | --- | --- | --- | --- | --- | --- | --- |
| O=C1NCCS(=O)(=O)N2CCC[C@@H]12 | > 100 µM (inactive) | > 100 µM (inactive) | > 100 µM (inactive) | > 100 | > 100 µM (inactive) | > 100 µM (inactive) | > 100 µM (inactive) | > 100 µM (inactive) | > 100 µM (inactive) | > 100 µM (inactive) | > 100 µM (inactive) | > 100 µM (inactive) | > 100 µM (inactive) | > 100 µM (inactive) | > 100 µM (inactive) | > 100 µM (inactive) | – | – | – | – |
| O=C(O)CCSC(=O)Nc1cccc([N+](=O)[O-])c1 | > 100 µM (inactive) | > 100 µM (inactive) | > 100 µM (inactive) | 44.2 | – | 87.1 µM (inactive) | > 100 µM (inactive) | > 100 µM (inactive) | > 100 µM (inactive) | > 100 µM (inactive) | 17 µM (inactive) | – | – | > 100 µM (inactive) | > 100 µM (inactive) | 63 µM (inactive) | > 100 µM (inactive) | – | – | – |
| CCOc1ccc([Se][Se]c2ccc(OCC)cc2)cc1 | – | 20.7 µM (inactive) | 56.1 µM (inactive) | 82.4 | – | – | – | > 100 µM (inactive) | > 100 µM (inactive) | > 100 µM (inactive) | 70.1 µM (inactive) | – | – | 26.9 µM (inactive) | – | 27.5 µM (inactive) | > 100 µM (inactive) | – | – | – |
| O=C1/C(=C/Cc2ccco2)N=C(c2ccccc2)N1c1nc2ccc(Sc3ccccc3)cc2[nH]1 | 8.36 µM (inactive) | – | 17.8 µM (inactive) | 30.5 | 18.7 µM (inactive) | 25 µM (inactive) | 28.1 µM (inactive) | 16.7 µM (inactive) | 21.9 µM (inactive) | 20.9 µM (inactive) | 18.9 µM (inactive) | 15.9 µM (inactive) | 25.9 µM (inactive) | 19.7 µM (inactive) | 17.7 µM (inactive) | 19.2 µM (inactive) | 16.1 µM (inactive) | 18.9 µM (inactive) | 23.6 µM (inactive) | 32.1 µM (inactive) |
| COc1cc2c(/C=C3/C(=O)Nc4ccc(Cl)cc43)c(Cl)[nH]c2cc1C | 10.6 µM (inactive) | – | 0.794 µM (active) | 0.449 | 10.6 µM (inactive) | 0.544 µM (active) | 0.394 µM (active) | 0.416 µM (active) | 0.356 µM (active) | 1.73 µM (inactive) | 1.03 µM (active) | 0.592 µM (active) | 0.284 µM (active) | 0.394 µM (active) | 0.553 µM (active) | 1.34 µM (inactive) | 0.966 µM (active) | 0.327 µM (active) | 0.662 µM (active) | 4.39 µM (inactive) |
| CCOC(=O)C(NC(=O)c1nc[nH]c1[N+](=O)[O-])C(C)C (stereo unspecified) | > 100 µM (inactive) | > 100 µM (inactive) | > 100 µM (inactive) | > 100 | – | 74 µM (inactive) | > 100 µM (inactive) | > 100 µM (inactive) | > 100 µM (inactive) | 84.9 µM (inactive) | > 100 µM (inactive) | 17.3 µM (inactive) | > 100 µM (inactive) | 34.5 µM (inactive) | 94.8 µM (inactive) | > 100 µM (inactive) | > 100 µM (inactive) | – | – | – |
| COC(=O)C(=O)C(C(=O)OC)C(=O)C(=O)Nc1cc(Cl)c(C)cc1S(=O)(=O)O (stereo unspecified) | > 100 µM (inactive) | > 100 µM (inactive) | > 100 µM (inactive) | > 100 | – | > 100 µM (inactive) | > 100 µM (inactive) | > 100 µM (inactive) | > 100 µM (inactive) | > 100 µM (inactive) | > 100 µM (inactive) | > 100 µM (inactive) | > 100 µM (inactive) | > 100 µM (inactive) | > 100 µM (inactive) | > 100 µM (inactive) | > 100 µM (inactive) | – | – | – |
| CCCN(CCC)C(=O)Cc1c2n(c3ccccc13)CCCc1ccccc1-2 | – | 11.7 µM (inactive) | 13.5 µM (inactive) | 11.6 | 4.2 µM (inactive) | 13.2 µM (inactive) | 12.5 µM (inactive) | 12.6 µM (inactive) | 16 µM (inactive) | 16.3 µM (inactive) | 15.1 µM (inactive) | 14.3 µM (inactive) | 15.2 µM (inactive) | 15.7 µM (inactive) | 13.9 µM (inactive) | 14.1 µM (inactive) | 13.1 µM (inactive) | – | – | – |
| O=c1c(O)c(-c2ccc(O)c(O)c2)oc2cc(O)cc(O)c12 [QUERCETIN] | > 100 µM (inactive) | 36.5 µM (inactive) | 46.1 µM (inactive) | 36.8 | – | – | 67.8 µM (inactive) | 42.9 µM (inactive) | > 100 µM (inactive) | 72.6 µM (inactive) | 46.7 µM (inactive) | 92 µM (inactive) | 52.7 µM (inactive) | 49.7 µM (inactive) | > 100 µM (inactive) | 77.1 µM (inactive) | 88.5 µM (inactive) | – | – | – |

Reference: ChEMBL document CHEMBL1201862, “PubChem BioAssay data set” (2004)
